Here are results for 69 compounds from PubChem BioAssay AID179 (DTP/NCI, 2004).

Values joined by “and” are separate entries in the source; they are usually repeats but may differ in a detail not shown here. Equal values may be shown once. Active and inactive are the calls of the source.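 Rule for the calls: active = compounds giving half or more protection of infected cells from virus-caused growth loss, again on retest; inactive = the rest.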 Where a SMILES comes first, the peptide text is derived from it.

The test system of this assay is CEM cells HIV-1 protection, formazan growth assay. In words: NCI AIDS Antiviral Assay. Conditions: for IC50: measured here: growth of uninfected CEM cells. The essentials:
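CEM (human) cells, HIV-1 infected vs uninfected, 5-point dosing, formazan growth read-out. Retest threshold 50% protection.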

For `CN(C)Nc1cc(=O)[nH]c(=O)[nH]1`, the EC50 (commonly the concentration needed to bring the measured effect to its halfway point) was more than 200 µM and the half-maximal inhibitory concentration (IC50) (commonly the point on the concentration scale where inhibition reaches its midpoint) is more than 200 µM.

`CCCC1=C(OC)C(=O)c2c(C)cc(Cl)nc2C1=O`: the EC50 was more than 200 µM and the IC50 was found to be 4.07 µM.

`O=C1c2cccc([N+](=O)[O-])c2C(=O)c2c1oc1ccc3ccccc3c21` gave a concentration giving a half-maximal response (EC50) of more than 200 µM and an IC50 of more than 200 µM.

As for `CCOC(=O)c1c(SCCCN2CCCCC2)n(-c2ccccc2)c(=S)n(-c2ccccc2)c1=O`, the EC50 is more than 37.2 µM and the IC50 was 6.31 µM.

As to `CN1C2CC(=O)CC1[C@@H]1OC(c3ccccc3)O[C@H]21` (some centres undefined), the EC50 is more than 200 µM and the IC50 was more than 200 µM.

For the compound `Cc1ccc(S(=O)C[C@@]2(C(F)F)NC(=O)NC2=O)cc1` (some centres undefined), the EC50 is more than 200 µM and the IC50 worked out at 178 µM.

Regarding `COC1C(OC(=O)/C=C/C=C/C=C/C=C/C(=O)O)CCC2(CO2)C1C1(C)OC1CC=C(C)C` (centres undefined), the EC50 is more than 0.2 µM and the IC50 amounted to 0.178 µM.

As to `O=S(=O)(CCn1c(Sc2ccccc2)c(Sc2ccccc2)c2ccccc21)c1ccccc1`, the EC50 was more than 200 µM and the IC50 is more than 200 µM.

As for `CCC(CC)(CO)CNc1cc(Cl)nc(N)n1`, the EC50 was more than 200 µM and the IC50 is more than 100 µM.

With `O=C1CN(c2ccc(Cl)cc2)C(=O)CN1CCN1CC(=O)N(c2ccc(Cl)cc2)CC1=O`, the EC50 is more than 200 µM and the half-maximal inhibitory concentration (IC50) is more than 200 µM.

For the compound `COC(=O)C1=C(C(=O)OC)C2(OC(C)=O)c3ccccc3-c3ccccc3C12` (centres undefined), the EC50 is more than 2.51 µM and the concentration for half-maximal inhibition (IC50) stood at 1.35 µM.

For `Cc1ccccc1C1=[N+]([O-])c2ccc(Cl)cc2C1=O`, the outcome was inactive.

In the case of `CC(=O)c1sc(Nc2ccc(Cl)c(Cl)c2)nc1C`, the outcome was inactive.

For the compound `O=C(NCCCCCCNC(=O)n1cc(F)c(=O)[nH]c1=O)NCCCOCCOCCOCCOCCOCCOCCOCCOCCOCCOCCOCCOCCOCCOCCOCCOCCOCCOCCOCCOCCOCCCNC(=O)C(O)C(O)C(OC1OC(CO)C(O)C(O)C1O)C(O)CO` (centres undefined), the outcome was inactive.

For `O=S(=O)(SSS(=O)(=O)c1ccc(Cl)cc1)c1ccc(Cl)cc1`, the EC50 is more than 63.1 µM and the IC50 was more than 63.1 µM.

Regarding `O=C(CCN1CCN(CCC(=O)c2ccccc2)CC1)c1ccccc1`, the EC50 was more than 200 µM and the IC50 turned out to be 9.12 µM.

Turning to `COc1ccc(NC(=O)/C(=N\NC(=O)C[n+]2ccccc2)c2c(O)c3ccc(O)cc3oc2=O)c([N+](=O)[O-])c1`, the EC50 was more than 437 µM and the IC50 is 72.4 µM.

For the compound `N#CCCN(c1ccc(C=Nc2ccccc2Cl)cc1)S(=O)(=O)c1ccccc1`, the EC50 was more than 427 µM and the IC50 turned out to be 331 µM.

In the case of `CCC(C)C(NC(=O)C(N)CCCCN)C(=O)NC(CCC(=O)O)C(=O)NC(CO)C(=O)NC(C(=O)O)C(C)O` (centres undefined) (H-KIEST-OH; configuration not given here), the result was inactive.

On to `O=C1C2[C@@H](C(=O)N1c1ccc(Br)cc1)C13C(=CC2([N+](=O)[O-])[C@@H]2C(=O)N(c4ccc(Br)cc4)C(=O)[C@@H]21)c1ccccc1N3c1ccccc1` (some centres undefined), for which the EC50 is more than 6.76 µM and the IC50 is more than 6.76 µM.

For `C[C@@H]1OC2(O)[C@H]3CCCN3S(=O)(=O)CCN2C1=O` (some centres undefined), the EC50 is more than 912 µM and the IC50 was more than 912 µM.

Take `COc1cc(Nc2cnc3ccc(C(F)(F)F)cc3n2)cc(OC)c1OC`: the EC50 is more than 35.5 µM and the IC50 worked out at 6.92 µM.

As to `CCOC(=O)C(Cc1ccc(N=NN(C)C)cc1)NC(=O)CC1c2ccccc2-c2ccccc21` (centres undefined), the EC50 is more than 11 µM and the IC50 was 6.46 µM.

For the compound `CC(C)O/C=C1\CCc2ccccc2C1=O`, the EC50 is more than 200 µM and the IC50 was 36.3 µM.

In the case of `OC1C(O)C2(C[C@H]1Br)OC(COCc1ccccc1)[C@@H](COCc1ccccc1)O2` (some centres undefined), the result was inactive.

As for `COc1cc(C2(O)c3ccccc3C3=NCCN32)cc(OC)c1OC` (centres undefined), the EC50 was more than 200 µM and the IC50 was more than 200 µM.

For `CCCCCCCCC(=O)NCCCNCCCNC(=O)CCCCCCCC`, the EC50 was more than 100 µM and the IC50 was 10 µM.

Turning to `C[C@]12CC(C=O)C(=O)C(O)=C1CC[C@@H]1C2CC[C@@]2(C)C1CC[C@]2(C)O` (some centres undefined), the result was inactive.

For `Nc1ccc2ncc(Nc3ccc(Cl)c(Cl)c3)nc2c1`, the EC50 was more than 8.91 µM and the IC50 is more than 8.91 µM.

Consider `COC(=O)CCSC(=O)Nc1ccccc1Cl`, for which the result was inactive.

Consider `CC(C)[C@H]1CO[C@@H]2O[C@H](C)C(C)C(=O)N21` (some centres undefined), for which the EC50 is more than 1170 µM and the IC50 is more than 1170 µM.

In the case of `CC(=O)c1ccc2c3c(ccc([N+](=O)[O-])c13)C(=O)OC2=O`, the EC50 was more than 200 µM and the concentration for half-maximal inhibition (IC50) is 30.9 µM.

As to `CC(C)(C)OC(=O)c1ccc(NCC2=C(Br)C(=O)C=CC2=O)cc1`, the EC50 was more than 200 µM and the IC50 is 11.5 µM.

Turning to `C[C@]12CCC3C(CC[C@H]4C/C(=C/C#N)CC[C@]34C)C1CC/C2=C\C#N` (some centres undefined), the EC50 was more than 100 µM and the IC50 is 25.7 µM.

`CC(O)C1OC(n2cnc3c(=O)[nH]cnc32)C(O)C1O` (centres undefined): the EC50 is more than 891 µM and the IC50 is more than 891 µM.

Regarding `Cn1c2c(c3ccccc31)CC(=O)N1CCCC(C1)CC21OCCO1` (centres undefined), the EC50 is more than 200 µM and the half-inhibitory concentration (IC50) was more than 200 µM.

On to `COc1ccc(C2=Nc3ccccc3SC(c3ccc(OC)cc3)C2)cc1` (centres undefined), for which the EC50 was more than 47.9 µM and the IC50 was determined as 25.7 µM.

As for `Cc1cc(C)nc(NS(=O)(=O)c2ccc(Nc3c4ccccc4nc4c(C(=O)N5CCN(CCOS(C)(=O)=O)CC5)ccc(Cl)c34)cc2)n1`, the EC50 is more than 30.9 µM and the IC50 is more than 30.9 µM.

For `CCOC(=O)CNC(=O)Sc1ccccc1C(=O)N[C@@H](C)C(N)=O`, the EC50 turned out to be 1.82 µM and the IC50 came out at 97.7 µM.

`CNC(=O)OCCOC(=O)c1ccc(OC(=O)NC)cc1`: the EC50 is more than 200 µM and the 50% inhibitory concentration (IC50) is 70.8 µM.

In the case of `O=C=Nc1cccc(S(=O)(=O)c2cccc(N=C=O)c2)c1`, the EC50 was more than 200 µM and the IC50 is more than 200 µM.

As for `CN1C(=O)CN2C(Cl)(Cl)C2(c2ccccc2F)c2cc([N+](=O)[O-])ccc21` (centres undefined), the EC50 is more than 200 µM and the IC50 came out at 141 µM.

On to `COc1ccc(-n2c(=O)c3[nH]c(=S)[nH]c3n(-c3ccc(OC)cc3)c2=S)cc1`, for which the EC50 is more than 200 µM and the IC50 was more than 200 µM.

In the case of `O=c1oc2ccccc2c2nc3ccc(Cl)cc3cc12`, the EC50 is more than 200 µM and the IC50 was 5.13 µM.

For `O=[N+]([O-])c1cccc2nsnc12`, the EC50 was more than 145 µM and the IC50 was determined as 23.4 µM.

As to `O=C(/C(=C1\SS/C(=C(/C(=O)c2ccccc2)c2ccccc2)S1)c1ccccc1)c1ccccc1`, the EC50 was more than 200 µM and the IC50 is more than 200 µM.

`COc1ccc(N2C(=O)/C(=C(\C)c3cc4ccccc4oc3=O)N=C2c2cc([N+](=O)[O-])ccc2Cl)cc1`: the EC50 was more than 10 µM and the half-inhibitory concentration (IC50) was more than 10 µM.

As to `NC(=O)C(N)c1ccccc1` (centres undefined), the EC50 was more than 200 µM and the IC50 was more than 200 µM.

With `C[N+](C)(C)CC(=O)N/N=C/c1oc(-c2cccc([N+](=O)[O-])c2)c(-c2cccc([N+](=O)[O-])c2)c1[N+](=O)[O-]`, the EC50 was more than 9.77 µM and the IC50 is more than 9.77 µM.

As to `COC(=O)[C@@H]1[C@H]2CC[C@]3(C)[C@@H](OC(C)=O)CC[C@H]3[C@@H]2CC[C@H]1C1(C)SCCS1`, the EC50 was 10 µM and the IC50 was 24 µM.

Regarding `N#Cc1cccc2c1Nc1ccccc1S2`, the EC50 is more than 23.4 µM and the IC50 was more than 23.4 µM.

For `C=CCC(C(=O)OC)C1(C(=O)OC)NCCc2c1[nH]c1ccccc21` (centres undefined), the EC50 is more than 324 µM and the IC50 is 178 µM.

For `CN1C(=O)/C(=c2\sc3nc4ccccc4n3c2=O)c2ccccc21`, the outcome was inactive.

Regarding `COC(=O)[C@@H]1Cc2c([nH]c3ccccc23)[C@H](c2ccccc2)N1`, the outcome was inactive.

For `COc1ccc(C(=O)CCC2(C)OCCO2)cc1OC`, the EC50 is more than 646 µM and the IC50 worked out at 479 µM.

With `CCCCNC(=O)n1ncc2cc([N+](=O)[O-])c([N+](=O)[O-])cc21`, the EC50 is more than 200 µM and the half-maximal inhibitory concentration (IC50) was found to be 25.7 µM.

As for `O=C(O)c1cc(Cc2cc(Cl)c(O)c(C(=O)O)c2)cc(Cl)c1O`, the EC50 is more than 501 µM; the IC50 was 347 µM and 204 µM.

As to `CC1(C)CC(=O)C(C(CC(c2ccccc2)c2cc3c(cc2O)OCO3)C2=C(O)CC(C)(C)CC2=O)=C(O)C1` (centres undefined), the EC50 was more than 200 µM and the IC50 was determined as 112 µM.

For `COc1ccc(Nc2ccc3ccccc3c2-c2c(O)ccc3ccccc23)cc1`, the EC50 is more than 200 µM and the IC50 was determined as 10.5 µM.

With `C[C@@H]1CN(C(=O)CCOS(C)(=O)=O)[C@@H](C)CN1C(=O)CCOS(C)(=O)=O`, the EC50 was more than 200 µM and the IC50 is 67.6 µM.

Take `CO/N=C1\CC(n2cc(C)c(=O)[nH]c2=O)OC1CO` (centres undefined): the EC50 was more than 200 µM and the IC50 was more than 200 µM.

For `CC(=O)Oc1cc2c(n(C)c1=O)CCC2`, the EC50 is more than 200 µM and the IC50 was 155 µM.

As for `Cn1c(=O)c(C(c2ccccc2)c2c(O)c3ccccc3n(C)c2=O)c(O)c2ccccc21`, the EC50 is more than 22.9 µM and the IC50 is more than 22.9 µM.

For `COC1=CCC=C(C[C@@H]2NCCc3cc(OC)c(OC)cc32)C1`, the EC50 is more than 200 µM and the IC50 was more than 200 µM.

As to `C/C(=N\NC(=O)CC(=O)N(C(=O)c1ccccc1Cl)c1ccc(C)cc1)c1ccc(Cl)cc1`, the EC50 is more than 14.1 µM and the concentration for half-maximal inhibition (IC50) is more than 14.1 µM.

For the compound `COC(=O)C1=C(C)N2CCOC2(C)C(C(=O)OC)C1c1ccc[nH]1` (centres undefined), the EC50 is more than 200 µM and the IC50 is more than 200 µM.

With `CCOc1ccc(N=c2ssc(SC)c2-c2ccccc2)cc1`, the EC50 was more than 200 µM and the IC50 amounted to 61.7 µM.

Consider `Cn1c2c(c(=O)c3cc(O)ccc31)CC(O)C(C)(C)O2` (centres undefined), for which the EC50 is more than 912 µM and the IC50 was 891 µM.

Turning to `O=[N+]([O-])c1ccc(-c2csc3nc(-c4ccccc4)nn23)cc1`, the EC50 was more than 200 µM and the IC50 is more than 200 µM.
